This is an account of results in US20130039998A1, “COMPOSITIONS OF MODULATORS OF THE WNT/BETA-CATENIN PATHWAY AND BENZAMIDE AND/OR HYDROXAMIC ACID DERIVATIVES TO TREAT BIPOLAR DISORDER” (UNIVERSITY OF WASHINGTON, priority 2008, published 2013).

Entries after “also recorded” stand apart in the source; their conditions may differ. Where only a bound is given, the exact number is not on record here.

The test system of one experiment is GSK-3. The conditions noted are these: from Ring et al. 2003 / Cline et al. 2002, cited from earlier work; for EC50: read-out: half-maximal effective concentration [EC50].
Experiment [1] has as its system pfuBARS control reporter (non-functional TCF elements), HEK-293T cells. The text has this:
(§1) To monitor Wnt/β-catenin signalling the beta-catenin activated reporter (BAR) system developed at the laboratory of Randall Moon, University of Washington, Seattle, Wash., was used. The BAR system contains a concatemer of twelve TCF (T-cell factor) response elements separated by unique five nucleotide linkers specifically designed to minimize recombination that can lead to loss of TCF binding sites. This series of TCF response elements is inserted upstream of Promega's minP minimal promoter completing a functional promoter that drives the transcription of firefly luciferase (pBARLS) along with a PGK promoter driving a puromycin selectable maker. These reporters were inserted between the LTRs (long terminal repeats) of a lentiviral transducing plasmid. […] The pfuBARS reporter is identical to their respective parent reporter with the exception that each TCF DNA binding element contains a two-base substitution conferring a non-functional element. The essentially identical nature of the control reporters provides the most optimal experimental control, as well as allowing for identical lentiviral titer production when generated side by side with the responsive reporter.
(§2) Cells were plated, treated, and the luciferase activity measured in a 384-well plate. The volume of culture media in each well prior to measuring luciferase activity was 40 μL. After incubation with compounds, 10 μL of Promega Firefly luciferase reagent was added using a liquid dispenser and incubated for 10 minutes at room temperature. Total luminescence was read on an Envision (Perkin Elmer) plate reader. Data was expressed relative to baseline of adding DMSO alone.

The subject of experiment [2] is T1, class I and class II HDACs.
T1 construct: other: HDAC1/2/3 together; other: compared with valproate
The experiment can be described thus: In vitro class I and class II HDAC inhibition. The format is biochemical, human. The settings on record: compared with valproate. The source says: (§3) To measure the effects of compounds on HDAC activity, a homogenous, fluorimetric deacetylase assay miniaturized to 384-well plate format was used. To perform this assay, a buffered solution containing a recombinant human deacetylase was transferred to a microtiter plate using a robotic plate-filler.
(§4) Following compound transfer, a second buffered solution was transferred containing trypsin and a class-specific, tripeptide substrate (AcK-AMC) terminating in an acetyl-lysine, which is amide-coupled to 7-amino-4-methylcoumarin (AMC). Following substrate hydrolysis by the deacetylase, trypsin cleaves the terminal amide bond releasing AMC. With an excitation/emission maximum of 350-380/440-460 nm, AMC fluorescence is captured by a multilabel plate reader. For a kinetic version of the assay, fluorescence measurements was recorded every 0.5-5 minutes over 60 minutes. Data were plotted on a well-by-well basis to measure the slope of increasing fluorescence over time, corresponding to enzymatic activity. HDAC enzymes used were commercially-available (BPS Biosciences San Diego, Calif.).

In experiment [3] the test system is Wnt/β-catenin signalling (TCF/LEF transcription), HEK-293T cells. The experiment can be described thus: pBARLS beta-catenin activated reporter (TCF/LEF transcription) in HEK-293T cells. Type of experiment: cell-based, human. The settings on record: for activation of pBARLS reporter, compound alone (FIG. 3B) / activation of pBARLS reporter in the presence of lithium (FIG. 3B): HEK293T, dose response; for activation of pBARLS reporter in the presence of lithium: 25 μM compound plus lithium 10 mM; for activation of pBAR reporter (FIG. 1B): HEK-293T cells (human).
From the text: as §1, §2

In experiment [4] the test system is Wnt/β-catenin signalling (TCF/LEF transcription), HT22 cells. The experiment can be described thus: pBARLS beta-catenin activated reporter (TCF/LEF transcription) in HT22 cells. The conditions noted are these: for activation of pBARLS reporter in the presence of lithium / activation of transcription of pBARLS reporter, compound alone: HT22, 24 hr; for activation of pBARLS reporter in the presence of lithium: 25 μM compound plus lithium 10 mM; for activation of transcription of pBARLS reporter, compound alone: lithium 10 mM, MS-275, CI-994, SAHA 25 μM; for activation of pBAR reporter (FIG. 1B): HT22 cells (mouse). Type of experiment: cell-based, mouse.
From the text: as §1, §2

A further experiment has as its target T2, HDAC1 (Homo sapiens, UniProt Q13547).
T2 construct: purchased BPS Biosciences
The experiment can be described thus: Fluorimetric deacetylase assay, HDAC1. The format is biochemical. The settings on record: Class I; avg n = 2 with class-specific substrates.

For the next experiment, the target named is T3, HDAC5 (Homo sapiens, UniProt Q9UQL6).
T3 construct: purchased BPS Biosciences
The experiment can be described thus: Fluorimetric deacetylase assay, HDAC5. The format is biochemical. The settings on record: Class IIa.

A further experiment concerns the target HDAC6 (Homo sapiens, UniProt Q9UBN7). The experiment can be described thus: Fluorimetric deacetylase assay, HDAC6. The format is biochemical.
From the text: as §3, §4

Where [5] appears, read: listed as Wnt3a conditioned media.

Chain of HDAC6 (Q9UBN7 whole entry): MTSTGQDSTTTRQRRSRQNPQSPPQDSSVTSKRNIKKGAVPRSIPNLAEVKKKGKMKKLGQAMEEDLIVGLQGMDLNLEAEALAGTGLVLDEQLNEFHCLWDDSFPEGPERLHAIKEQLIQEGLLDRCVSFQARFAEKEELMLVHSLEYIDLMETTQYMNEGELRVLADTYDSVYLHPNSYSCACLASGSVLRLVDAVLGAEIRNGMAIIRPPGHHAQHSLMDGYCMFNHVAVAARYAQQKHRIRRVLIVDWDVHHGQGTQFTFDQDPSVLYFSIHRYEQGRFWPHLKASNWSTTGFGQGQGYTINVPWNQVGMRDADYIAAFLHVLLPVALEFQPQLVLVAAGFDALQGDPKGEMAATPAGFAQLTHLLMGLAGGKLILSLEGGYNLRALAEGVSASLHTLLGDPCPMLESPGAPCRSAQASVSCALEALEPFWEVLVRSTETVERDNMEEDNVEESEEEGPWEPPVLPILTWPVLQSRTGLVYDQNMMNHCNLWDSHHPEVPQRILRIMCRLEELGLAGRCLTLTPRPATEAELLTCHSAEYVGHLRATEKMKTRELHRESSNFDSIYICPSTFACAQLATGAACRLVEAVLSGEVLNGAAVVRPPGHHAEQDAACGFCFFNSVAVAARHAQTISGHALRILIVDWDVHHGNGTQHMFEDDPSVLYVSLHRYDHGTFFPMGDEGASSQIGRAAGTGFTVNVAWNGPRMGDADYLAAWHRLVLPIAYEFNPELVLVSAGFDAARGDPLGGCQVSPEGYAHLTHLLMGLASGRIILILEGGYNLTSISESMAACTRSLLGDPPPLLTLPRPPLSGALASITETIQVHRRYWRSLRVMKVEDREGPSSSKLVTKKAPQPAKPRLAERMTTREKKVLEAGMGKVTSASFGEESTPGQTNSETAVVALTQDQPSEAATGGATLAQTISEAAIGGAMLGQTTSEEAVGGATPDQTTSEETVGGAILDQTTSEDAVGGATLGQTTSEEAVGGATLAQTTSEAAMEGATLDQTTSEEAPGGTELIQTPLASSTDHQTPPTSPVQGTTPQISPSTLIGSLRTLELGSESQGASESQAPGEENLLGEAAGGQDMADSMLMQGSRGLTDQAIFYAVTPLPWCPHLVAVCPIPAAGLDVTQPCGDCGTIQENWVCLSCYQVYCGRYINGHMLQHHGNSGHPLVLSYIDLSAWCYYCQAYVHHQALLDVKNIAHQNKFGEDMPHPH
T3 sequence (Q9UQL6 whole entry): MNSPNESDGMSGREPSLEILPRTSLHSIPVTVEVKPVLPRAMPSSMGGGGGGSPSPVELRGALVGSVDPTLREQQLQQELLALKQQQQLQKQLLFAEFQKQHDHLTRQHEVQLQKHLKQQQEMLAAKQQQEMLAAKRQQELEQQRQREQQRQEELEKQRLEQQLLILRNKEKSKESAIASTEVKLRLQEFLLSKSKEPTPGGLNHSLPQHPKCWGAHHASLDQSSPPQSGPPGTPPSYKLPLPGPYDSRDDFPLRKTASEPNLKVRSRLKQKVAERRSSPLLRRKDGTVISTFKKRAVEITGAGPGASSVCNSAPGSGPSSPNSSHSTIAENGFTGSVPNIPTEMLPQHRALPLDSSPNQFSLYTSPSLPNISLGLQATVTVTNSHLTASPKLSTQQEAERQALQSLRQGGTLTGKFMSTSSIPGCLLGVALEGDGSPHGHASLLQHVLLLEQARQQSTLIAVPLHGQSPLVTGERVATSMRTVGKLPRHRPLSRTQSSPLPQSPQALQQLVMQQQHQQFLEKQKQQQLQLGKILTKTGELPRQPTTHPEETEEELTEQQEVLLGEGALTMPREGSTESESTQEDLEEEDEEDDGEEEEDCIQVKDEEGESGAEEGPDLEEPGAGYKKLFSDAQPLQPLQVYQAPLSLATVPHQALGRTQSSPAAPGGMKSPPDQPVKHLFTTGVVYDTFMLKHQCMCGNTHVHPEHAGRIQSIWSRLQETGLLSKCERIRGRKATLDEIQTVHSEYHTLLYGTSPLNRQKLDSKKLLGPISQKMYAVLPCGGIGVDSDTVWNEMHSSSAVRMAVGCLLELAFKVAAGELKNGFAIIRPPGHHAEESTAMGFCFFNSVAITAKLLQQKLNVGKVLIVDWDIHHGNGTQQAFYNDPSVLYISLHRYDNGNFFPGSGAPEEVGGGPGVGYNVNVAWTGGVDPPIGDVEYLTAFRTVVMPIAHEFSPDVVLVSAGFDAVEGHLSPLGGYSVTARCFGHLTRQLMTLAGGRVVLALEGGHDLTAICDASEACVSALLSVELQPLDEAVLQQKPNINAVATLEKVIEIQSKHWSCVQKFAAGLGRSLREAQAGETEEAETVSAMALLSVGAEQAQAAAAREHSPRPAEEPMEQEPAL
T2 sequence (Q13547 whole entry): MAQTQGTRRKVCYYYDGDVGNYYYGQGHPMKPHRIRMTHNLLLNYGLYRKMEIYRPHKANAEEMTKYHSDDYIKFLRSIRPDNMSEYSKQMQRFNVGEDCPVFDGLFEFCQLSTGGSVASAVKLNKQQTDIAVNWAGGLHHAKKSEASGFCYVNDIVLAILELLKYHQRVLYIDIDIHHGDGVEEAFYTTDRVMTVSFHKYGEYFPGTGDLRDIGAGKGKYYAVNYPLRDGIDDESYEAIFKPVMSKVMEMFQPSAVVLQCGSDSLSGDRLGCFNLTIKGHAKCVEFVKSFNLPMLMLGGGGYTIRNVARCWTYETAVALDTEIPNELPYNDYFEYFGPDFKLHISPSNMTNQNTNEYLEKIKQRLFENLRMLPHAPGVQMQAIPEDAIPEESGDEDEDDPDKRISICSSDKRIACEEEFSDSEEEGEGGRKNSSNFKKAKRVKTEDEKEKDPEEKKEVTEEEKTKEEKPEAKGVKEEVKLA

Turning to `O=[N+]([O-])c1ccc(NCCNc2ncc(-c3ncc[nH]3)c(-c3ccc(Cl)cc3Cl)n2)nc1` [CHIR-837], in the experiment on GSK-3, the “selectivity for GSK-3” value is > 5,000 fold and the EC50 was 0.375 µM.

As to `Cc1c[nH]c(-c2cnc(NCCNc3ccc(C#N)cn3)nc2-c2ccc(Cl)cc2Cl)n1` [CHIR-911], in the experiment on GSK-3, the “selectivity for GSK-3” value is […] and the EC50 is […].

Consider `CC(=O)Nc1ccc(C(=O)Nc2ccccc2N)cc1` [CI-994], for which, in experiment [1], the “activity in pfuBARS control reporter, compound alone” value is reported as “no activity” and the “activity in pfuBARS control reporter in the presence of lithium” value is recorded as “no activity”. The “potency on class I HDACs in comparison to valproate” value in experiment [2] is on record as “much more potent”.

Regarding `Nc1ccccc1NC(=O)c1ccc(CNC(=O)OCc2cccnc2)cc1` [MS-275], the “activation of pBARLS reporter, compound alone (FIG. 3B)” value in experiment [3] (24 hr, alone) is “activation on their own”. In experiment [3] (24 hr, lithium 10 mM), the “activation of pBARLS reporter in the presence of lithium (FIG. 3B)” value was “synergistic activation”. Moreover, the “activation of pBARLS reporter in the presence of lithium” value is “strong synergistic activation of transcription; also recorded: strong synergy” in experiment [3] (HEK-293T, 24 hr) and “strong synergistic activation of transcription” in experiment [4]. For the same compound, the “activation of transcription of pBARLS reporter, compound alone” value in experiment [3] (HEK-293T, 24 hr, lithium 10 mM, MS-275, CI-994, SAHA 25 μM, alone) is listed as “activated transcription of the reporter; also recorded: activate transcription on their own”; in experiment [4], “partially capable of activating transcription; also recorded: capable of activating transcription on its own”. Further, in experiment [1], the “activity in pfuBARS control reporter, compound alone” value is listed as “no activity”. For the same compound, the “activity in pfuBARS control reporter in the presence of lithium” value in experiment [1] is “no activity”.

With `O=C(CCCCCCC(=O)Nc1ccccc1)NO` [SAHA], the “activation of pBARLS reporter in the presence of lithium” value is “strong synergistic activation of transcription; also recorded: strong synergy” in experiment [3] (HEK-293T, 24 hr) and “strong synergistic activation of transcription” in experiment [4]. Besides, the “activation of transcription of pBARLS reporter, compound alone” value in experiment [4] was “unable to activate transcription”.

Turning to `Cc1[nH]c2ccccc2c1CCNCc1ccc(/C=C/C(=O)NO)cc1` [panobinostat], the “activation of pBARLS reporter, compound alone (FIG. 3B)” value in experiment [3] (24 hr, alone) was “activation on their own”. In experiment [3] (24 hr, lithium 10 mM), the “activation of pBARLS reporter in the presence of lithium (FIG. 3B)” value is “synergistic activation”. Also, in experiment [3] (pBARLS reporter dose response), the “potency relative to SAHA (dose responses, FIG. 3)” value is on record as “more potent than SAHA”.

`CCCC(CCC)C(=O)O` [valproate]: the IC50 on HDAC1 is 27 µM; against HDAC5 it was more than 10000 µM; at HDAC6 it was more than 10000 µM.

Wnt3a: the “activation of pBAR reporter (FIG. 1B)” value in experiment [3] was “activation”; in experiment [3] (setting [5]), “capable of responding”; in experiment [4], “activation”; in experiment [4] (setting [5]) it was “capable of responding”.
